Columns and labels:
[1] = Blood levels after oral gavage; parameters: species or system adult rats; conditions: rat, in vivo
Description: In the treatment of certain localized conditions, the degree of hydrophilicity of the CMT can be of lesser importance. […].

[2] = Solubility in aqueous systems; format: physicochemical
[3] = Testing in cancer patients (side effects); format: in vivo
[4] = Toxicity in vivo; conditions: 2.0 µg/ml concentration
[5] = system: Aspergillus fumigatus ATCC 1022; test: SABHI agar plate growth inhibition screen; format: cell-based; conditions: for Activity against Aspergillus fumigatus (Example 1): 25 µg/ml SABHI agar; for Growth at 25 µg/ml compared to control at 24 hrs incubation / Growth at 25µg/ml compared to control at 48 hours: Aspergillus Fumigatus, 30°C, growth grade
Method: (§1) The following fungi were inoculated onto potato dextrose agar (PDA) from stock cultures and incubated aerobically at 30°C: Aspergillus [NT] 1022, Penicillium sp. (laboratory isolate), Candida albicans, ATCC 14053, and Rhizopus sp. […] Candida albicans was suspended in saline and adjusted to 0.5 MacFarland in a similar manner. These suspensions were diluted 1:100 in sterile 0.9% saline. SABHI Agar (Difco) pH 7.0 was prepared in 100ml amounts and sterilized at 121°C for 15 min. […] The plates were then incubated aerobically for 24 hour and for 48 hours at 30°C.

[6] = system: Rhizopus sp.; test: SABHI agar plate growth inhibition screen; format: cell-based; conditions: for Growth at 25 µg/ml compared to control at 24 hrs incubation / Growth at 25µg/ml compared to control at 48 hours: Rhizopus sp., 30°C, growth grade
Method: as §1

[7] = system: Penicillium sp. (laboratory isolate); test: SABHI agar plate growth inhibition screen; format: cell-based; conditions: for Activity against Penicillium sp. (Example 1): 25 µg/ml SABHI agar; for Growth at 25 µg/ml compared to control at 24 hrs incubation / Growth at 25µg/ml compared to control at 48 hours: Penicillium Sp., 30°C, growth grade
Method: as §1

[8] = system: Candida albicans, ATCC 14053; test: SABHI agar plate growth inhibition screen; format: cell-based; conditions: for Growth at 25 µg/ml compared to control at 24 hrs incubation / Growth at 25µg/ml compared to control at 48 hours: Candida Albicans, 30°C, growth grade; for Activity against Candida albicans (Example 1): 25 µg/ml SABHI agar
Method: as §1

| Structure (SMILES) | Blood levels [1] | Solubility in aqueous systems [2] | Side effects [3] | Toxicity in vivo [4] | Activity against Aspergillus fumigatus (Example 1) [5] | Growth at 25 µg/ml compared to control at 24 hrs incubation [5] | Growth at 25µg/ml compared to control at 48 hours [5] | Growth at 25 µg/ml compared to control at 24 hrs incubation [6] | Growth at 25µg/ml compared to control at 48 hours [6] | Activity against Penicillium sp. (Example 1) [7] | Growth at 25 µg/ml compared to control at 24 hrs incubation [7] | Growth at 25µg/ml compared to control at 48 hours [7] | Growth at 25 µg/ml compared to control at 24 hrs incubation [8] | Growth at 25µg/ml compared to control at 48 hours [8] | Activity against Candida albicans (Example 1) [8] | Activity against Rhizopus sp. (Example 1) ([6]; 25 µg/ml SABHI agar) |
| --- | --- | --- | --- | --- | --- | --- | --- | --- | --- | --- | --- | --- | --- | --- | --- | --- |
| CN(C)C1C(=O)C(C#N)=C(O)C2(O)C(=O)C3=C(O)c4c(O)cccc4C(C)(O)C3CC12 (stereo not drawn) [CMT-2, tetracyclinonitrile] | no detectable blood levels | low solubility in aqueous systems |  |  |  |  |  |  |  |  |  |  |  |  |  |  |
| NC(=O)C1=C(O)C[C@@H]2C[C@@H]3Cc4cccc(O)c4C(=O)C3=C(O)[C@]2(O)C1=O [CMT-3, 6-demethyl-6-deoxy-4-de(dimethylamino)tetracycline] |  |  | without evidence of side effects, except at unusually high doses | very little toxicity |  |  |  |  |  |  |  |  |  |  |  |  |
| CC1(O)c2c(Cl)ccc(O)c2C(=O)C2=C(O)C3(O)C(=O)C(C(N)=O)=C(O)CC3CC21 (stereo not drawn) [CMT-4, 7-chloro-4-de(dimethylamino)tetracycline] |  |  |  |  | demonstrated activity | 0 (complete inhibition of growth.) | 1 (75% reduction in growth in colonies compared to control.) | 4 (Level of growth in the absence of anti-fungal agent (control).) | 4 (Level of growth in the absence of anti-fungal agent (control).) | demonstrated activity | 3 (25% reduction in growth of colonies compared to control.) | 0 (complete inhibition of growth.) | 1 (75% reduction in growth in colonies compared to control.) | 4 (Level of growth in the absence of anti-fungal agent (control).) |  |  |
| CC1(O)c2cccc(O)c2C(=O)C2=C(O)C3C(=O)C(C(N)=O)=C(O)CC3CC21 (stereo not drawn) [CMT-7, 4-de(dimethylamino)-12α-deoxytetracycline] |  |  |  |  |  | 0 (complete inhibition of growth.) | 4 (Level of growth in the absence of anti-fungal agent (control).) | 4 (Level of growth in the absence of anti-fungal agent (control).) | 3 (25% reduction in growth of colonies compared to control.) |  | 3 (25% reduction in growth of colonies compared to control.) | 4 (Level of growth in the absence of anti-fungal agent (control).) | 0 (complete inhibition of growth.) | 0 (complete inhibition of growth.) | strong activity |  |
| NC(=O)C1=C(O)C[C@@H]2C[C@@H]3Cc4ccc(N)c(O)c4C(=O)C3=C(O)[C@]2(O)C1=O [CMT-308] |  |  |  |  | demonstrated activity | 0 (complete inhibition of growth.) | 1 (75% reduction in growth in colonies compared to control.) | 4 (Level of growth in the absence of anti-fungal agent (control).) | 4 (Level of growth in the absence of anti-fungal agent (control).) | demonstrated activity | 0 (complete inhibition of growth.) | 0 (complete inhibition of growth.) | 4 (Level of growth in the absence of anti-fungal agent (control).) | 4 (Level of growth in the absence of anti-fungal agent (control).) |  |  |
| O=C(NCN1CCNCC1)C1=C(O)C[C@@H]2C[C@@H]3Cc4cccc(O)c4C(=O)C3=C(O)[C@]2(O)C1=O [CMT-315] |  |  |  |  | activity against all the fungi tested | 0 (complete inhibition of growth.) | 0 (complete inhibition of growth.) | 1 (75% reduction in growth in colonies compared to control.) | 1 (75% reduction in growth in colonies compared to control.) | activity against all the fungi tested | 0 (complete inhibition of growth.) | 0 (complete inhibition of growth.) | 0 (complete inhibition of growth.) | 0 (complete inhibition of growth.) | activity against all the fungi tested | activity against all the fungi tested |
